Data taken from patent publication US20130101615A1, “METHODS FOR PREVENTING OR TREATING A DISEASE OR CONDITION ASSOCIATED WITH MYCOBACTERIUM AVIUM SUBSPECIES PARATUBERCULOSIS” (priority 2005, published 2013).
Where “and” joins values, the source holds several entries; their conditions need not be identical. Equal entries are not always repeated. Entries after “also recorded” stand apart in the source; their conditions may differ. Where two headings read alike, the source gives them in different places.

Legend:
[1] = tested on: M. avium 101; type: cell-based, M. avium subspecies avium; conditions: for % ΔcGI: vs 3.2% DMSO control
[2] = tested on: MAP ATCC 19698 (bovine); type: cell-based, Mycobacterium avium subspecies paratuberculosis; conditions: for % ΔcGI: Bovine MAP 19698, vs 3.2% DMSO control
[3] = tested on: M. avium ATCC 25291; type: cell-based, M. avium subspecies avium; conditions: for % ΔcGI: M. avium 25291, vs 3.2% DMSO control; for effect on growth, in words: M. avium ATCC 25291
[4] = tested on: MAP Dominic (ATCC 43545), isolated from human with Crohn's disease; type: cell-based, Mycobacterium avium subspecies paratuberculosis; conditions: for % ΔcGI: vs 3.2% DMSO control
[5] = tested on: MAP 303 (ruminant with Johne's disease); experiment: Radiometric BACTEC growth inhibition, MAP 303; type: cell-based, Mycobacterium avium subspecies paratuberculosis; conditions: Bovine MAP 303, vs 3.2% DMSO control
[6] = tested on: MAP UCF 4, isolated from human with Crohn's disease; experiment: Radiometric BACTEC growth inhibition, MAP UCF4; type: cell-based, Mycobacterium avium subspecies paratuberculosis; conditions: for % ΔcGI: Human MAP UCF4, vs 3.2% DMSO control
[7] = tested on: MAP; experiment: Growth inhibition of MAP (strain not stated or MAP strains in general); conditions: for %−ΔcGI (percent decrease in cumulative GI): Example 3, strain not stated

**Q.** Which results are given for `Nc1ccc(S(=O)(=O)Nc2ccccn2)cc1` [sulfapyridine]?
**A.** effect on growth, in words [1]: inhibited M. avium 101 in a dose-dependent manner; effect on proliferation / cumulative growth index, in words ([2]; MAP ATCC 19698): little effect on the cumulative growth index of MAP

**Q.** With `CO[C@H]1C[C@@H]2CC[C@@H](C)[C@@](O)(O2)C(=O)C(=O)N2CCCC[C@H]2C(=O)O[C@H]([C@H](C)C[C@@H]2CC[C@@H](O)[C@H](OC)C2)CC(=O)[C@H](C)/C=C(\C)[C@@H](O)[C@@H](OC)C(=O)[C@H](C)C[C@H](C)/C=C/C=C/C=C/1C` [Rapamycin, sirolimus (rapamycin)] as the molecule, how does the “% ΔcGI” value ([3]; 1 μg/ml) read?
**A.** Its value is 10%.

**Q.** What about the “% ΔcGI” value ([3]; 4 μg/ml) of the same molecule?
**A.** The value was 7%.

**Q.** And the “% ΔcGI” value ([3]; 16 μg/ml)?
**A.** The value was 11%.

**Q.** And the “% ΔcGI” value ([3]; 64 μg/ml)?
**A.** The value was −18%.

**Q.** What about the “effect on growth, in words” value [3] of the same molecule?
**A.** The value was “no inhibition; also recorded: no effect”.

**Q.** What about the “% ΔcGI” value ([1]; 1 μg/ml) of the same molecule?
**A.** Its value is −19%.

**Q.** And the “% ΔcGI” value ([1]; 4 μg/ml)?
**A.** Its value is −7%.

**Q.** What about the “% ΔcGI” value ([1]; 16 μg/ml) of the same molecule?
**A.** The value was −28%.

**Q.** And the “% ΔcGI” value ([1]; 64 μg/ml)?
**A.** The value was −39%.

**Q.** And the “% ΔcGI” value ([2]; 1 μg/ml)?
**A.** The value was −3%.

**Q.** And the “% ΔcGI” value ([2]; 4 μg/ml)?
**A.** The value was −1%.

**Q.** What about the “% ΔcGI” value ([2]; 16 μg/ml) of the same molecule?
**A.** Its value is −18%.

**Q.** And the “% ΔcGI” value ([2]; 64 μg/ml)?
**A.** The value was −43%.

**Q.** And the “% ΔcGI” value ([4]; 1 μg/ml, Human MAP Dominic Expt. 1)?
**A.** Its value is 21%.

**Q.** And the “% ΔcGI” value ([4]; 1 μg/ml, Human MAP Dominic Expt. 2)?
**A.** Its value is 0%.

**Q.** And the “% ΔcGI” value ([4]; 4 μg/ml, Human MAP Dominic Expt. 1)?
**A.** Its value is 13%.

**Q.** What about the “% ΔcGI” value ([4]; 4 μg/ml, Human MAP Dominic Expt. 2) of the same molecule?
**A.** The value was −7%.

**Q.** What about the “% ΔcGI” value ([4]; 16 μg/ml, Human MAP Dominic Expt. 1) of the same molecule?
**A.** Its value is −10%.

**Q.** And the “% ΔcGI” value ([4]; 16 μg/ml, Human MAP Dominic Expt. 2)?
**A.** The value was −9%.

**Q.** And the “% ΔcGI” value ([4]; 64 μg/ml, Human MAP Dominic Expt. 1)?
**A.** Its value is −58%.

**Q.** What about the “% ΔcGI” value ([4]; 64 μg/ml, Human MAP Dominic Expt. 2) of the same molecule?
**A.** Its value is −44%.

**Q.** And the “% ΔcGI” value ([5]; 1 μg/ml)?
**A.** Its value is 4%.

**Q.** What about the “% ΔcGI” value ([5]; 4 μg/ml) of the same molecule?
**A.** The value was −11%.

**Q.** What about the “% ΔcGI” value ([5]; 16 μg/ml) of the same molecule?
**A.** The value was −15%.

**Q.** And the “% ΔcGI” value ([5]; 64 μg/ml)?
**A.** The value was −39%.

**Q.** And the “% ΔcGI” value ([6]; 1 μg/ml)?
**A.** Its value is −14%.

**Q.** And the “% ΔcGI” value ([6]; 4 μg/ml)?
**A.** The value was −9%.

**Q.** What about the “% ΔcGI” value ([6]; 16 μg/ml) of the same molecule?
**A.** Its value is −29%.

**Q.** And the “% ΔcGI” value ([6]; 64 μg/ml)?
**A.** The value was −76%.

**Q.** And the “%−ΔcGI (percent decrease in cumulative GI)” value ([6]; 64 μg/ml, MAP UCF 4)?
**A.** Its value is 76%.

**Q.** What about the “inhibition, in words” value ([6]; lower concentrations (1 and 16 μg/ml), MAP UCF 4) of the same molecule?
**A.** The value was “no inhibition”.

**Q.** With `Sc1ncnc2nc[nH]c12` [6-MP, 6-mercaptopurine] as the molecule, how does the “effect on growth, in words” value [3] read?
**A.** The value was “less susceptibility to 6-MP than to methotrexate”.

**Q.** What about the “effect on growth, in words” value [1] of the same molecule?
**A.** The value was “less susceptibility to 6-MP than to methotrexate”.

**Q.** What about the “%−ΔcGI (percent decrease in cumulative GI)” value ([7]; 1 μg/ml) of the same molecule?
**A.** Its value is ≥ 43%.

**Q.** And the “%−ΔcGI (percent decrease in cumulative GI)” value ([7]; 4 μg/ml)?
**A.** Its value is ≥ 84%.

**Q.** And the “effect on growth of MAP, in words” value ([7]; MAP strains in general)?
**A.** Its value is “inhibit the growth kinetics of MAP”.

**Q.** And the “%−ΔcGI (percent decrease in cumulative GI)” value ([2]; 4 μg/ml, MAP 19698, Example 3)?
**A.** The value was ~80% and 84%.

**Q.** What about the “%−ΔcGI (percent decrease in cumulative GI)” value ([4]; 4 μg/ml, MAP Dominic, Example 3) of the same molecule?
**A.** The value was 41%.
